Test system: HCV pseudoparticles (genotype 1a HCV E1 and E2 envelope, H77C isolate)
Test: microbe, parasite or virus in culture
Type: cell-based
Details: Hepatitis C virus, Huh-7, 48 h, HCV pseudoparticle infection of Huh7 cells, luciferase 2 days after infection; average of duplicates

Question: How did the EC50 turn out when `CC(C)(CNC(=O)C(=O)Nc1ccccc1)CNC(=O)c1ccc(Nc2nc(NC3(c4ccc(Cl)cc4)CC3)nc(OCC(F)(F)F)n2)cc1` [Compound 1035, N1-(3-(4-(4-(1-(4-chlorophenyl)cyclopropylamino)-6-(2,2,2-trifluoroethoxy)-1,3,5-triazin-2-ylamino)benzamido)-2,2-dimethylpropyl)-N2-phenyloxalamide] was run?
Answer: 0.03 nM

Question: `COC(=O)[C@H](CNC(=O)C(=O)NC(C1CC1)C1CC1)NC(=O)c1ccc(Nc2nc(NC3(c4ccc(Cl)cc4)CC3)nc(OCC(F)(F)F)n2)cc1` [Compound 1055] was tested. Which EC50 did it give?
Answer: 2.41 nM

Same assay, conditions: Hepatitis C virus, Huh-7, 48 h, read-out: Activity (EC50 class), HCV pseudoparticle infection of Huh7 cells, luciferase 2 days after infection; EC50 expressed as class A/B

Question: For `CC(C)(CNC(=O)C(=O)NCC1(CN2CCCC2)CC1)CNC(=O)c1ccc(Nc2nc(NC3(c4ccc(Cl)cc4)CC3)nc(OCC(F)(F)F)n2)cc1` [Compound 1036], which EC50 is on record?
Answer: 0.01 to 10 nM

Question: With `O=C(NC[C@H](NC(=O)c1ccc(Nc2nc(NC3(c4ccc(Cl)cc4)CC3)nc(OCC(F)(F)F)n2)cc1)C(=O)O)C(=O)NC1CCCC1` [Compound 1037] as the compound, how does the EC50 read?
Answer: 0.01 to 10 nM

Question: `O=C(NCC1CCCCC1)C(=O)NC[C@@H](NC(=O)c1ccc(Nc2nc(NC3(c4ccc(Cl)cc4)CC3)nc(OCC(F)(F)F)n2)cc1)C(=O)O` [Compound 1039] was tested. Which EC50 did it give?
Answer: 0.01 to 10 nM

Question: `CN1CCCC1CCNC(=O)C(=O)NC[C@H](NC(=O)c1ccc(Nc2nc(NC3(c4ccc(Cl)cc4)CC3)nc(OCC(F)(F)F)n2)cc1)C(=O)O` (some centres unmarked) [Compound 1040] was tested. Which EC50 did it give?
Answer: 10 to 1000 nM

Question: Which EC50 does the source give for `O=C(NCC1CCCO1)C(=O)NC[C@@H](NC(=O)c1ccc(Nc2nc(NC3(c4ccc(Cl)cc4)CC3)nc(OCC(F)(F)F)n2)cc1)C(=O)O` (some centres unmarked) [Compound 1042] here?
Answer: 0.01 to 10 nM

Question: How did the EC50 turn out when `O=C(NCc1cccnc1)C(=O)NC[C@@H](NC(=O)c1ccc(Nc2nc(NC3(c4ccc(Cl)cc4)CC3)nc(OCC(F)(F)F)n2)cc1)C(=O)O` [Compound 1043] was run?
Answer: 0.01 to 10 nM

Question: With `CCC(C)CNC(=O)C(=O)NC[C@@H](NC(=O)c1ccc(Nc2nc(NC3(c4ccc(Cl)cc4)CC3)nc(OCC(F)(F)F)n2)cc1)C(=O)O` (some centres unmarked) [Compound 1044] as the compound, how does the EC50 read?
Answer: 0.01 to 10 nM

Question: With `CN(C)CCNC(=O)C(=O)NC[C@@H](NC(=O)c1ccc(Nc2nc(NC3(c4ccc(Cl)cc4)CC3)nc(OCC(F)(F)F)n2)cc1)C(=O)O` [Compound 1045] as the compound, how does the EC50 read?
Answer: 0.01 to 10 nM

Question: With `COCCNC(=O)C(=O)NC[C@H](NC(=O)c1ccc(Nc2nc(NC3(c4ccc(Cl)cc4)CC3)nc(OCC(F)(F)F)n2)cc1)C(=O)O` [Compound 1046] as the compound, how does the EC50 read?
Answer: 0.01 to 10 nM

Question: `COC(=O)C(CNC(=O)C(=O)NC1CC(C)(C)CC(C)(C)C1)NC(=O)c1ccc(Nc2nc(NC3(c4ccc(Cl)cc4)CC3)nc(OCC(F)(F)F)n2)cc1` (centres unmarked) [Compound 1047] was tested. Which EC50 did it give?
Answer: 0.01 to 10 nM

Question: With `COC(=O)C(CNC(=O)C(=O)NC1CCC(O)CC1)NC(=O)c1ccc(Nc2nc(NC3(c4ccc(Cl)cc4)CC3)nc(OCC(F)(F)F)n2)cc1` (centres unmarked) [Compound 1048] as the compound, how does the EC50 read?
Answer: 0.01 to 10 nM

Question: For `COC(=O)C(CNC(=O)C(=O)NC1CCN(C(=O)OC(C)(C)C)CC1)NC(=O)c1ccc(Nc2nc(NC3(c4ccc(Cl)cc4)CC3)nc(OCC(F)(F)F)n2)cc1` (centres unmarked) [Compound 1049], which EC50 is on record?
Answer: 0.01 to 10 nM

Question: `COC(=O)[C@H](CNC(=O)C(=O)N[C@@H]1C[C@@H]2CC[C@H]1C2)NC(=O)c1ccc(Nc2nc(NC3(c4ccc(Cl)cc4)CC3)nc(OCC(F)(F)F)n2)cc1` [Compound 1050] was tested. Which EC50 did it give?
Answer: 0.01 to 10 nM

Question: For `COC(=O)[C@H](CNC(=O)C(=O)NC1CCCCC1O)NC(=O)c1ccc(Nc2nc(NC3(c4ccc(Cl)cc4)CC3)nc(OCC(F)(F)F)n2)cc1` (some centres unmarked) [Compound 1051], which EC50 is on record?
Answer: 0.01 to 10 nM

Question: Which EC50 does the source give for `COC(=O)C(CNC(=O)C(=O)NC1CCCC(NC(=O)OC(C)(C)C)C1)NC(=O)c1ccc(Nc2nc(NC3(c4ccc(Cl)cc4)CC3)nc(OCC(F)(F)F)n2)cc1` (centres unmarked) [Compound 1053] here?
Answer: 0.01 to 10 nM

Question: `COC(=O)[C@H](CNC(=O)C(=O)N[C@H]1C[C@H]2C3C2[C@]31C)NC(=O)c1ccc(Nc2nc(NC3(c4ccc(Cl)cc4)CC3)nc(OCC(F)(F)F)n2)cc1` (some centres unmarked) [Compound 1054] was tested. Which EC50 did it give?
Answer: 0.01 to 10 nM

Question: `COC(=O)[C@H](CNC(=O)C(=O)NC(C1CC1)C1CC1)NC(=O)c1ccc(Nc2nc(NC3(c4ccc(Cl)cc4)CC3)nc(OCC(F)(F)F)n2)cc1` [Compound 1055] was tested. Which EC50 did it give?
Answer: 0.01 to 10 nM

Question: `COC(=O)[C@H](CNC(=O)C(=O)NC1CCCC(O)C1)NC(=O)c1ccc(Nc2nc(NC3(c4ccc(Cl)cc4)CC3)nc(OCC(F)(F)F)n2)cc1` (some centres unmarked) [Compound 1056] was tested. Which EC50 did it give?
Answer: 0.01 to 10 nM

Source: US8916702B2 (priority 2012, dated 2014)
